The assay deals with T1, SMS2 (Homo sapiens, UniProt Q8NHU3).
T1 construct: CAO, Yu research team, National Protein Scientific Center (Shanghai); supplied by an outside laboratory, not a commercial vendor
T1 sequence (Q8NHU3 1-365): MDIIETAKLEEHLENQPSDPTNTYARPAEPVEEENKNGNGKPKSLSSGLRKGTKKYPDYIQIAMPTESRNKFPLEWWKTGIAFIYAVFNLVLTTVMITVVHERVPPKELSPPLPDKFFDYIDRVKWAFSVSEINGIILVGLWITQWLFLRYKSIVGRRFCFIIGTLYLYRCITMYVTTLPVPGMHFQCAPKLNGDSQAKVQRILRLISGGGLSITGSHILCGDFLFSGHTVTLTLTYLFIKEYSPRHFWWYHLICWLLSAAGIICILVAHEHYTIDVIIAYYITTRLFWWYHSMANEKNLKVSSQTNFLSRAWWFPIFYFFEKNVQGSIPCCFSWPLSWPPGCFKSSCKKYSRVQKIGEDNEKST
Kind of assay: SMS2 inhibitory activity in vitro, HPLC fluorescence quantitative detection (C6-NBD-ceramide to C6-NBD-SM). The class given is biochemical. The note with it: SMS2 pure enzyme, 37°C, 30 minutes, average of two measurements; for inhibition at 10 µM: 10 µM test compound, read-out: Inhibition rate on SMS2 at C/µM 10; for inhibition at 1 µM: 1 µM test compound, read-out: Inhibition rate on SMS2 at C/µM 1. The source says: • 1. Electro-thermostatic water bath, from Shanghai Yiheng Technology Co., Ltd.); • 2. Vortex Mixer, with model ID of XW-80A, from Shanghai Jingke Industrial Co., Ltd.; • 3. […] High Performance Liquid Chromatography Agilent 1100, equipped with a quaternary pump, vacuum degassing, and FLD fluorescence detector, from Agilent Technologies, Palo Alto, CA, USA; • 5. HPLC column COSMOSIL 5C18-MS-II (4.6mm I.D. X 250mm); • 6. […] The organic solvents used in the present disclosure were purchased from Shanghai National Reagent Company, wherein methanol was pure chromatography; water was ultra-pure water which is filtrated by Milli-Q pump, deionized and ultra-filtrated with 0.22 µm membrane; and other biological consumables were purchased from domestic companies; • 8. Preparation of test compound solutions: each test compound was accurately weighed and dissolved in an appropriate volume of DMSO to prepare a 10 mmol/L stock solution. The stock solution was then diluted with an appropriate volume of DMSO to achieve the desired working concentration; • 9. SMS2 pure enzyme, DDM solution and buffer solution were provided by CAO, Yu research team from National Protein Scientific Center (Shanghai).
79 µl of the diluted enzyme solution were transferred into a 1.5 mL EP tube, 1 µl of inhibitor DMSO solution were added thereto, vortexing for 15 seconds, followed by standing at room temperature for 5 minutes. 20 µl of a mixed solution of DMPC and C6-NBD-ceramide were added, vortexing for 15 seconds, and incubated at 37°C for 30 minutes. 200 µl of anhydrous ethanol were added to quench the reaction, vortexing for 15 seconds. 200 µl of the reaction solution were taken out and stored at 4°C and avoided light for HPLC detection.
The peak area values of A(sm) and A(ceramide) in the HPLC chromatogram corresponding to C6-NBD-SM and C6-NBD-Ceramide in the DMSO group and inhibitor group samples were analyzed and recorded, and the inhibition rate of the test compound was calculated according to the following formula. Inhibition rate = (Peak area values of DMSO group−Peak area values of Inhibitor group)/(Peak area values of DMSO group) × 100% [formula]

Structures are written as SMILES.

In the case of `N#Cc1cccc(COc2ccsc2C(=O)Nc2cccnc2)c1` [1-51, 3-(3-cyanobenzyloxy)-N-(pyridin-3-yl)thiophene-2-carboxamide], the inhibition at 10 µM came out at 60%.

Consider `COc1ccc2ccccc2c1COc1ccsc1C(=O)Nc1cccnc1` [1-16, 3-[(2-methoxynaphthalen-1-yl)methoxy]-N-(pyridin-3-yl)thiophene-2-carboxamide], for which the inhibition at 1 µM was found to be 78%.

Consider `O=C(Nc1cccnc1)c1sccc1OCc1ccccc1I` [1-87, 3-(yloxy)-N-(pyridin-3-yl)thiophene-2-carboxamide], for which the inhibition at 1 µM came to 82%.

Regarding `CCOC(=O)CCCCCOc1ccccc1COc1ccsc1C(=O)Nc1cccnc1` [1-18, 6-(2-[(2-(pyridin-3-ylcarbamoyl)thiophene-3-yl)oxymethyl]phenoxy)ethyl hexanoate], the inhibition at 10 µM worked out at 97%.

Regarding `O=C(Nc1cccnc1)c1sccc1OCc1cccc(C(F)(F)F)c1` [1-97, 3-(3-trifluoromethylbenzyloxy)-N-(pyridin-3-yl)thiophene-2-carboxamide], the inhibition at 1 µM came to 80%.

Turning to `O=C(Nc1cccnc1)c1nccnc1OCc1ccccc1` [12-20], the inhibition at 10 µM stood at 16%.

As for `O=C(Nc1cccnc1)c1sccc1OCc1c2ccccc2cc2ccccc12` [1-13, 3-(anthracen-9-ylmethoxy)-N-(pyridin-3-yl)thiophene-2-carboxamide], the inhibition at 1 µM stood at 50%.

Regarding `O=C(Nc1cccnc1)c1sccc1OCc1cc(OP(=O)(O)O)ccc1Cl` [1-26], the inhibition at 1 µM amounted to 13%.

On to `O=C(Nc1cccnc1)c1cnccc1OCc1ccccc1` [12-16, 4-benzyloxy-N-(pyridin-3-yl)pyridin-3-carboxamide], for which the inhibition at 10 µM came out at 17%.

For `O=C(Nc1ccccc1)c1sccc1OCc1ccccc1` [1-7, 3-benzyloxy-N-phenylthiophen-2-carboxamide], the inhibition at 10 µM worked out at 50%.

As to `O=C(Nc1cc(F)ccn1)c1sccc1OCc1ccccc1` [12-4, 3-benzyloxy-N-(4-fluoropyridin-2-yl)thiophene-2-carboxamide], the inhibition at 1 µM came to 3%.

Regarding `Cc1cncc(NC(=O)c2sccc2OCc2ccccc2)c1` [1-83, 3-benzyloxy-N-(5-methylpyridin-3-yl)thiophene-2-carboxamide], the inhibition at 10 µM worked out at 50%.

For `O=C(Nc1cccnc1)c1sccc1OCc1cccc2ccccc12` [1-10, 3-(naphthalen-1-ylmethoxy)-N-(pyridin-3-yl)thiophene-2-carboxamide], the inhibition at 1 µM was determined as 86%.

For `O=C(Nc1cccnc1)c1sccc1OCc1c(Cl)cccc1Cl` [1-3, 3-(2,6-dichlorobenzyloxy)-N-(pyridin-3-yl)thiophene-2-carboxamide], the inhibition at 10 µM was found to be 97%.

As to `O=C(Nc1cccnc1)c1cscc1OCc1ccccc1` [1-100, 4-(benzyloxy)-N-(pyridin-3-yl)thiophene-3-carboxamide], the inhibition at 1 µM is 60%.

In the case of `O=C(Nc1ccnnc1)c1sccc1OCc1ccccc1` [12-2, 3-benzyloxy-N-(pyridazin-4-yl)thiophene-2-carboxamide], the inhibition at 10 µM is 23%.

Take `O=C(Nc1cccnc1)c1sccc1OCc1cc(Cl)ccc1Cl` [1-89, 3-(2,5-dichlorobenzyloxy)-N-(pyridin-3-yl)thiophene-2-carboxamide]: the inhibition at 1 µM stood at 74%.

Regarding `CCCCCCCOc1cc(Cl)ccc1COc1ccsc1C(=O)Nc1cccnc1` [1-72, 3-(4-chloro-2-(heptyloxy)benzyloxy)-N-(pyridin-3-yl)thiophene-2-carboxamide], the inhibition at 1 µM was found to be 90%.

In the case of `O=C(Nc1ccc2c(c1)oc1ccccc12)c1sccc1OCc1ccccc1` [12-6, 3-(benzyloxy)-N(dibenzo[b,d]furan-3-yl)thiophene-2-carboxamide], the inhibition at 1 µM is -5%.

Regarding `O=C(Nc1cncnc1)c1sccc1OCc1ccccc1` [1-64, 3-benzyloxy-N-(pyrimidin-5-yl)thiophene-2-carboxamide], the inhibition at 10 µM worked out at 51%.

`O=C(Nc1cccnc1)c1sccc1OCc1cccc2c1Oc1c(F)c(F)c(F)c(F)c1O2` [1-19, N-(pyridin-3-yl)-3-[(6,7,8,9-tetrafluorodibenzo[b,e][1,4]dioxin-1-yl)methoxy]thiophene-2-carboxamide]: the inhibition at 10 µM was 77%.

Turning to `CN(C(=O)c1sccc1OCc1ccccc1)c1cccnc1` [1-62, 3-benzyloxy-N-methyl-(pyridin-3-yl)thiophene-2-carboxamide], the inhibition at 10 µM amounted to 57%.

As to `O=C(Nc1ccccn1)c1sccc1OCc1ccccc1` [1-61, 3-benzyloxy-N-(pyridin-2-yl)thiophene-2-carboxamide], the inhibition at 10 µM came out at 50%.

Take `O=C(Nc1cccnc1)c1sccc1OCc1ccccc1OC(F)(F)F` [1-53, 3-(2-(trifluoromethoxy)benzyloxy)-N-(pyridin-3-yl)thiophene-2-carboxamide]: the inhibition at 1 µM was 87%.

On to `O=C(Nc1cccnc1)c1sccc1OCC12CC3CC(CC(C3)C1)C2` [1-99, 3-(adamantan-1-ylmethoxy)-N-(pyridin-3-yl)thiophene-2-carboxamide], for which the inhibition at 10 µM turned out to be 62%.

`O=C(Nc1cccnc1)c1sccc1OCc1ccccc1OCCCCCl` [1-75, 3-(2-(4-chlorobutoxy)benzyloxy)-N-(pyridin-3-yl)thiophene-2-carboxamide]: the inhibition at 1 µM worked out at 97%.

With `CCCCOc1ccsc1C(=O)Nc1cccnc1` [1-95], the inhibition at 10 µM was found to be 50%.

With `CCCOc1cccc(Cl)c1COc1ccsc1C(=O)Nc1cccnc1` [1-39, 3-(2-chloro-6-propoxybenzyloxy)-N-(pyridin-3-yl)thiophene-2-carboxamide], the inhibition at 1 µM amounted to 74%.

Consider `O=C(Nc1cccnc1)c1sccc1OCc1ccccc1Br` [1-86, 3-(2-bromobenzyloxy)-N-(pyridin-3-yl)thiophene-2-carboxamide], for which the inhibition at 1 µM worked out at 86%.

`CCc1ccccc1COc1ccsc1C(=O)Nc1cccnc1` [1-81, 3-(2-ethylbenzyloxy)-N-(pyridin-3-yl)thiophene-2-carboxamide]: the inhibition at 1 µM amounted to 73%.

`Cc1cccc(COc2ccsc2C(=O)Nc2cccnc2)c1` [1-43, 3-(3-methylbenzyloxy)-N-(pyridin-3-yl)thiophene-2-carboxamide]: the inhibition at 1 µM is 69%.

Turning to `CCCOc1ccc(OCCC)c(COc2ccsc2C(=O)Nc2cccnc2)c1` [1-93, 3-(2,5-dipropoxybenzyloxy)-N-(pyridin-3-yl)thiophene-2-carboxamide], the inhibition at 10 µM came to 50%.

On to `O=C(O)CCCCCOc1ccccc1COc1ccsc1C(=O)Nc1cccnc1` [1-17, 6-(2-[(2-(pyridin-3-ylcarbamoyl)thiophene-3-yl)oxymethyl]phenoxy)hexanoic acid], for which the inhibition at 10 µM was found to be 50%.

Turning to `O=C(Nc1cc(F)c(F)c(F)c1)c1sccc1OCc1ccccc1` [12-10], the inhibition at 1 µM was -30%.

For the molecule `O=C(Nc1cccnc1)c1sccc1OCc1ccccc1F` [1-44, 3-(2-fluorobenzyloxy)-N-(pyridin-3-yl)thiophene-2-carboxamide], the inhibition at 1 µM came to 54%.

As for `O=C(Nc1ccncc1)c1sccc1OCc1ccccc1` [12-11], the inhibition at 1 µM was 7%.

Turning to `Cc1ccc(COc2ccsc2C(=O)Nc2cccnc2)cc1` [1-42, 3-(4-methylbenzyloxy)-N-(pyridin-3-yl)thiophene-2-carboxamide], the inhibition at 10 µM stood at 50%.

In the case of `COc1cccc(Cl)c1COc1ccsc1C(=O)Nc1cccnc1` [1-63, 3-(2-chloro-6-methoxybenzyloxy)-N-(pyridin-3-yl)thiophene-2-carboxamide], the inhibition at 1 µM worked out at 80%.

For the molecule `CCCCCOc1cccc(Cl)c1COc1ccsc1C(=O)Nc1cccnc1` [1-38, 3-(2-(n-pentyloxy)-6-chlorobenzyloxy)-N-(pyridin-3-yl)thiophene-2-carboxamide], the inhibition at 1 µM turned out to be 91%.

Regarding `Cc1ccc(NC(=O)Cc2ccccc2COc2ccsc2C(=O)Nc2cccnc2)nc1` [12-8, 3-(2-(2-((5-methylpyridin-2-yl)amino)-2-oxoethyl)benzyloxy)-N-(pyridin-3-yl) thiophene-2-carboxamide], the inhibition at 10 µM stood at 7%.

The values above are taken from patent EP4768480A1, “ALKOXY THIOPHENE ACYL ARYLAMINE COMPOUNDS AND USE THEREOF” (priority 2024, dated 2025).
